In patent publication US6503935B1, “Imidazoles and related compounds as α1A agonists” (Abbott Laboratories, priority 1998, dated 2003):
Where a name gives a salt, the structure may show the parent alone. Read-outs that look alike come from different tables or passages of the source.

What was measured:
[1] = target: T1, α1d (rat receptor expressed in mouse fibroblasts) (Rattus norvegicus, UniProt P23944); test: Radioligand binding with [3H]-prazosin, α1d; details: rat receptor expressed in mouse fibroblasts, [3H]-prazosin
T1 construct: expressed in transfected cells; host or cells: mouse fibroblasts
T1 sequence (P23944 1-561): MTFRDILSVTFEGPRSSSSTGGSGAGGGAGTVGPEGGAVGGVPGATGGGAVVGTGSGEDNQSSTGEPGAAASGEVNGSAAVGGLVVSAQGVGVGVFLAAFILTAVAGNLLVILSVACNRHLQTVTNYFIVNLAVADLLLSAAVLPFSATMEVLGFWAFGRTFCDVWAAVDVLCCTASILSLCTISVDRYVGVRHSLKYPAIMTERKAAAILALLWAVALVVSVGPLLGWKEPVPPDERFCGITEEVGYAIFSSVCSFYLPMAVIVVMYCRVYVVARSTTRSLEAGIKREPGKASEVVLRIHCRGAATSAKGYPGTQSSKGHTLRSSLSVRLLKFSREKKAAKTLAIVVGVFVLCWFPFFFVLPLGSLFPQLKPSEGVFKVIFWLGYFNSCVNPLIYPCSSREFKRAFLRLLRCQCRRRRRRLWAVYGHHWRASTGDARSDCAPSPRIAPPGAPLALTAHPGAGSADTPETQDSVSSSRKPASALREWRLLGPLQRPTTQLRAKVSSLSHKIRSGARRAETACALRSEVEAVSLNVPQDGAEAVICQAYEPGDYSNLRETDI
Procedure, shortened: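 Radioligand binding with [3H]-prazosin: α1A from rat submaxillary gland; α1b hamster receptor and α1d rat receptor, each expressed in mouse fibroblasts.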

[2] = target: T2, α1A (rabbit urethra) (Oryctolagus cuniculus, UniProt O02824); test: Agonist contraction of smooth muscle tissue, rabbit urethra; format: cell-based; details: rabbit urethra; read-out: Agonist Tissue Response (pD2) α1A (rab ureth) (converted)
T2 construct: tested for α1A functional activity using rabbit urethra; from tissue; host or cells: rabbit urethra
T2 sequence (O02824 1-466): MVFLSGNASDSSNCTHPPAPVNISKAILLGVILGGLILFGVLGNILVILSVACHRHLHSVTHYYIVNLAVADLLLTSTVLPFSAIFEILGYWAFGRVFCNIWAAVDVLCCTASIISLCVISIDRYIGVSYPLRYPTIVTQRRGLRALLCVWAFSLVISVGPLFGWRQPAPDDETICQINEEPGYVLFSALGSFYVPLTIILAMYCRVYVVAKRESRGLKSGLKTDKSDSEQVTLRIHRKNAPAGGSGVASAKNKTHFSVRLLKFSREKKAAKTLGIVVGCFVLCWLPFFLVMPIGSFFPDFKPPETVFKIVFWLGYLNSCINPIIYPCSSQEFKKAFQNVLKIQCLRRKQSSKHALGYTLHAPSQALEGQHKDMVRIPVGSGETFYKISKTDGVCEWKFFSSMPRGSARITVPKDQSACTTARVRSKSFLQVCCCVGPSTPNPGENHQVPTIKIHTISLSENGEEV
Procedure: Most of the compounds were tested for α1A functional activity using rabbit urethra as follows. Female New Zealand white rabbits (2.0-3.5 Kg) were sedated with CO2 and decapitated. […] Subsequent experimental conditions were as described above for the other tissues. Agonist concentration response curves were cumulative except for the vas deferens assay in which the transient response made such measurements impractical.

[3] = system: Anesthetized Dogs; test: Intraurethral pressure (IUP) in anesthetized dogs; format: in vivo, dog; details: for Mean Selectivity Ratio MAP ED20/IUP ED5 / Mean IUP ED5 / ED (5 mmHg IUP increase): anesthetized female dogs; for Mean Selectivity Ratio MAP ED20/IUP ED5 / ED (5 mmHg IUP increase): iv; for Mean IUP ED5 / ED (5 mmHg IUP increase): iv dose causing a maximum increase in IUP of 5 mm Hg; for Mean IUP ED5: maleate; for ED (5 mmHg IUP increase): Canis lupus familiaris, read-out: Mean IUP ED5
Excerpt: In vivo Functional Assays-Assessment of Intrurethral Pressure (IUP) and Mean Arterial Pressure (MAP) in Anesthetized Dogs
Female dogs (Marshall Farms, North Rose, N.Y.) greater that 2 years of age and weighing between 12 and 15 kg were used in these studies. At least 2 weeks prior to any agonist dosing, dogs were instrumented for the chronic measurement of arterial blood pressure by implanting a telemetry transducer/transmitter (TA11PA-C40, Data Sciences International, St. Paul, Minn.) into a carotid artery.
On the test day, dogs fasted since the previous afternoon were pre-anesthetized with thiopental sodium 15 mg/kg i.v. (Pentothal™, Abbott) and intubated. Anesthesia was maintained by allowing the dog to spontaneously breathe a mixture of isoflurane (2.5 to 3 volume %) and oxygen delivered by a Narkomed Standard anesthesia system (North American Drager, Telford, Pa.). An Abbocath-T™ i.v. catheter (18-G, Abbott) was inserted into the cephalic vein for the administration of agonists. A telemetry receiver (RA1310, DataSciences) was placed under the head of each dog and was interfaced to a computerized data acquisition system (Modular Instruments Inc.(MI2), Malvern, Pa.) which allowed for the continuous calibrated recording of arterial blood pressure which was electronically filtered to determine its mean value (MAP).
Dogs with chronic telemetry implants anesthetized as described above were placed in dorsal recumbency and a balloon catheter was inserted into the urethral orifice and advanced approximately 15 cm until the tip was well inside the bladder. The balloon was then inflated with 1 ml of room air and the catheter slowly withdrawn until resistance (corresponding to the bladder neck) was evident. The balloon was then deflated and the catheter withdrawn an additional 2 cm. The balloon was then reinflated and its catheter port connected to a Gould Statham P23Dd pressure transducer interfaced to a computerized data acquisition system (Modular Instruments, Inc., Malvern, Pa.) for the measurement of intraurethral pressure. Increasing iv doses of test agonists were administered and the maximum effect of each dose on IUP was recorded. The effect of each dose was allowed to return to baseline before the next dose was given.
From the resulting dose response curve, an ED5 value, for the dose causing a maximum increase in IUP of 5 mm Hg, could be estimated. An ED20 value for the dose causing a maximum increase in MAP of 20 mm Hg could also be estimated. A selectivity ratio of MAP ED20 vs. IUP ED5 was calculated.

[4] = system: Anesthetized Dogs; test: Intraurethral pressure (IUP) in anesthetized dogs; format: in vivo, dog; details: Canis lupus familiaris; iv dose causing a maximum increase in IUP of 5 mm Hg, anesthetized female dogs; read-out: Mean IUP ED5
[5] = read-out: Radioligand Binding Ki α1d (Rat)
[6] = Radioligand Binding Ki α1d (Rat)

Compound | Ki [1, 5] | EC50 [2] | Mean Selectivity Ratio MAP ED20/IUP ED5 [3] | Mean IUP ED5 [3] | ED (5 mmHg IUP increase) [3] | Ki [1, 6] | ED (5 mmHg IUP increase) [4] | selectivity for increasing intraurethral pressure over arterial pressure as compared to N-(3-(1H-imidazol-4-ylmethyl)-2-methylphenyl]methanesulfonamide) ([3]; in vivo, dogs)
CCS(=O)(=O)Nc1cccc2c1CCCC2c1c[nH]cn1.O=C(O)/C=C\C(=O)O (single isomer, unassigned; (+)) [Example 33, (+)-N-[5-(1H-imidazol-4-yl)-5,6,7,8-tetrahydro-1-naphthalenyl]ethanesulfonamide, maleate] | 1080 nM | 170 nM | 3.3 | 10.5 nmol/kg | – | – | – | –
CCS(=O)(=O)Nc1cccc2c1CCCC2c1c[nH]cn1.O=C(O)/C=C\C(=O)O (single isomer, unassigned; (-)) [Example 34, (−)-N-[5-(1H-imidazol-4-yl)-5,6,7,8-tetrahydro-1-naphthalenyl]ethanesulfonamide, maleate] | 842 nM | 28200 nM | – | >1000 nmol/kg | – | – | – | –
CCS(=O)(=O)Nc1cccc2c1CCCC2c1c[nH]cn1.O=C(O)/C=C\C(=O)O (stereo not drawn) [Example 12, N-[5-(1H-imidazol-4-yl)-5,6,7,8-tetrahydro-1-naphthalenyl]ethanesulfonamide, maleate] | 1670 nM | 631 nM | 7.6 | – | 0.0107 µmol/kg | – | – | –
CN(c1cccc2c1CCCC2c1c[nH]cn1)S(C)(=O)=O (stereo not drawn) [Example 15, N-[5,6,7,8-tetrahydro-5-(1H-imidazol-4-yl)-1-naphthalenyl]-N-methylmethanesulfonmamide, maleate] | 701 nM | 692 nM | 2.5 | – | – | – | – | –
O=C(Nc1cccc2c1CCCC2c1c[nH]cn1)C(F)(F)F (stereo not drawn) [Example 17, 2,2,2-trifluoro-N-[5-(1H-imidazol-4-yl)-5,6,7,8-tetahydro-1-naphthalenyl]acetamide, maleate] | 3300 nM | 525 nM | 1.1 | – | – | – | – | –
CS(=O)(=O)Nc1cccc(Cc2c[nH]cn2)c1.O=C(O)/C=C\C(=O)O [Example 21, N-[3-(1H-imidazol-4-ylmethyl)phenyl]methanesulfonamide, maleate] | – | 1860 nM | – | – | – | 212 nM | 0.0227 µmol/kg | –
COc1ccc(NS(C)(=O)=O)c2c1C(c1c[nH]cn1)CCC2 (stereo not drawn) [Example 26, N-[5,6,7,8-tetrahydro-(1H-imidazol-4-yl)-4-methoxyy-1-naphthalenyl]methanesulfonamide, maleate] | – | 15500 nM | 2.6 | – | – | – | 0.653 µmol/kg | –
Cc1c(Cc2c[nH]cn2)cccc1NS(C)(=O)=O.O=C(O)/C=C\C(=O)O [Example 28, N-[3-(1H-imidazol-4-ylmethyl)-2-methylphenyl]methanesulfonamide, maleate] | – | 5620 nM | 2.1 | – | – | 815 nM | 0.0771 µmol/kg | –
CCS(=O)(=O)Nc1cccc(Cc2c[nH]cn2)c1C.O=C(O)/C=C\C(=O)O [Example 29, N-[3-(1H-imidazol-4-ylmethyl)-2-methylphenyl]ethanesulfonamide, maleate] | – | – | 5.6 | – | – | 678 nM | 0.0411 µmol/kg | > 3 times
CC(c1cccc(NS(C)(=O)=O)c1)c1c[nH]cn1.O=C(O)/C=C\C(=O)O (stereo not drawn) [Example 31, N-[3-[1-(1H-imidazol-4-yl)ethyl]phenyl]methanesulfonamide, maleate] | – | 4170 nM | 3.4 | – | – | 685 nM | 0.0916 µmol/kg | –
CS(=O)(=O)Nc1ccc(F)c2c1CCCC2c1c[nH]cn1.O=C(O)/C=C\C(=O)O (stereo not drawn) [Example 44, N-[4-fluoro-5-(1H-imidazol-4-yl)-5,6,7,8-tetrahydro-1-naphthalenyl]methanesulfonamide, maleate] | 3050 nM | 4900 nM | 1.0 | – | 0.844 µmol/kg | – | – | –
C=C(c1cccc(NS(=O)(=O)CC)c1)c1c[nH]cn1 [Example 45, N-{3-[1-(1H-imidazol-4-yl)vinyl]phenyly}ethanesulfonamide, maleate] | – | 2000 nM | 2.6 | – | – | 971 nM | – | –
